Reference: patent publication US12459951B2, “Compounds that interact with RAS superfamily proteins for treatment of cancers, inflammatory diseases, rasopathies, and fibrotic disease” (SHY Therapeutics, LLC, priority 2022, dated 2025)
Like-named read-outs stand apart in the source and are kept apart here.

Columns and labels:
[1] = Mouse Liver Microsome Metabolic Stability Assay; format: in vitro ADME; conditions: pH 7.4, Mouse liver microsomes, 37° C., NADPH, read-out: t½
Outline: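 Compounds (2 μM, 1.6% solvent) incubated at 37 °C with mouse liver microsomes (0.42 mg/mL) in 100 mM phosphate pH 7.4 with an NADPH-regenerating system; five time points over 40 min, duplicates, LC-MS/MS. kel, t1/2 and Clint from linear regression of ln(AUC) vs. time; no-NADPH controls.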

[2] = system: NCI-H358 (expressing KRas G12C mutant); assay: Proliferation Assay (Cell Viability Assay); format: cell-based; conditions: Homo sapiens
Outline: (§1)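 Cells plated at 2000–5000/well overnight, then treated 2–4 days at 37 °C, 5% CO2 with compound at 10 μM single dose or serial dilutions for IC50, in 0.3% DMSO and 10% FBS. Viability read by CellTiter 96 Aqueous One (MTS); % proliferation inhibition calculated from raw data.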

[3] = system: GP2d (expressing KRas G12D mutant); assay: Proliferation Assay (Cell Viability Assay); format: cell-based; conditions: Homo sapiens
Outline: as §1

[4] = system: MM.1R (expressing wild type KRAS); assay: Proliferation Assay (Cell Viability Assay); format: cell-based; conditions: Homo sapiens, read-out: MM.1R IC50 (nM) Multiple Myloma
Outline: as §1

[5] = system: BT-549 (expressing wild type KRAS); assay: Proliferation Assay (Cell Viability Assay); format: cell-based; conditions: Homo sapiens
Outline: as §1

[6] = system: A375 (wild type Kras); assay: Proliferation Assay (Cell Viability Assay); format: cell-based; conditions: Homo sapiens, A-375
Outline: as §1

[7] = Proliferation assay, NCI-H358, read-out: NCI-H358 IC50 (nM) NSCLC
[8] = Proliferation assay, read-out: GP2d IC50 (nM) Colorectal
[9] = BT-549, Proliferation assay, BT549, read-out: BT549 IC50 (nM) TNBC
[10] = Proliferation assay, A375, read-out: A375 IC50 (nM) Melanoma

SMILES	half-life at 2 µM [1] [min]	IC50 [2, 7] [nM]	IC50 [3, 8] [nM]	IC50 [4] [nM]	IC50 [5, 9] [nM]	IC50 [6, 10] [nM]	IC50 ([2]; NCI-H358, NSCLC, KRas G12C, read-out: Proliferation assay IC50) [nM]	IC50 ([3]; colon, KRas G12D, read-out: Proliferation assay IC50) [nM]	IC50 ([5]; BT-549, Breast (TNBC), KRas WT, read-out: Proliferation assay IC50) [nM]	IC50 ([6]; A375, melanoma, KRas WT, read-out: Proliferation assay IC50) [nM]
Cc1c(-c2ccn(C)n2)cn2nc(-c3nccn3C)nc(Nc3cc(-c4ccccn4)[nH]n3)c12 [Compound 265, 5-Methyl-2-(1-methyl-1H-imidazol-2-yl)-6-(1-methyl-1H-pyrazol-3-yl)-N-(5-(pyridin-2-yl)-1H-pyrazol-3-yl)pyrrolo[2,1-f][1,2,4]triazin-4-amine]	> 10	–	–	–	–	–	–	–	–	–
Cc1c(-c2ccn(C)n2)cn2nc(-c3nccn3C)nc(Nc3cc(-c4ccccn4)ccn3)c12 [Compound 248, N-([2,4′-Bipyridin]-2′-yl)-5-methyl-2-(1-methyl-1H-imidazol-2-yl)-6-(1-methyl-1H-pyrazol-3-yl)pyrrolo[2,1-f][1,2,4]triazin-4-amine]	> 10	–	–	–	–	–	–	–	–	–
CCOc1cc(Nc2nc(-c3nccn3C)nn3cc(-c4ccn(C)n4)c(C)c23)n[nH]1 [Compound 260, N-(5-Ethoxy-1H-pyrazol-3-yl)-5-methyl-2-(1-methyl-1H-imidazol-2-yl)-6-(1-methyl-1H-pyrazol-3-yl)pyrrolo[2,1-f][1,2,4]triazin-4-amine]	< 10	–	–	–	–	–	–	–	–	–
Cc1cc(Nc2nc(-c3nccn3C)nn3cc(-c4ccn(C)n4)c(C)c23)n[nH]1 [Compound 255, 5-Methyl-2-(1-methyl-1H-imidazol-2-yl)-6-(1-methyl-1H-pyrazol-3-yl)-N-(5-methyl-1H-pyrazol-3-yl)pyrrolo[2,1-f][1,2,4]triazin-4-amine]	> 10	1 to 10	1 to 10	< 1	1 to 10	10 to 50	–	–	–	–
Cc1c(-c2ccn(C)n2)cn2nc(-c3nccn3C)nc(Nc3cc(-c4cccnc4)ccn3)c12 [Compound 250, N-([3,4′-Bipyridin]-2′-yl)-5-methyl-2-(1-methyl-1H-imidazol-2-yl)-6-(1-methyl-1H-pyrazol-3-yl)pyrrolo[2,1-f][1,2,4]triazin-4-amine]	< 10	–	–	–	–	–	–	–	–	–
Cc1[nH]nc(Nc2nc(-c3nccn3C)nn3cc(-c4ccn(C)n4)c(C)c23)c1C [Compound 267, N-(4,5-Dimethyl-1H-pyrazol-3-yl)-5-methyl-2-(1-methyl-1H-imidazol-2-yl)-6-(1-methyl-1H-pyrazol-3-yl)pyrrolo[2,1-f][1,2,4]triazin-4-amine]	> 10	1 to 10	1 to 10	< 1	10 to 50	1 to 10	–	–	–	–
Cc1c(-c2ccn(C)n2)cn2nc(-c3nccn3C)nc(Nc3cc(C(C)C)[nH]n3)c12 [Compound 268, N-(5-Isopropyl-1H-pyrazol-3-yl)-5-methyl-2-(1-methyl-1H-imidazol-2-yl)-6-(1-methyl-1H-pyrazol-3-yl)pyrrolo[2,1-f][1,2,4]triazin-4-amine]	< 10	–	–	–	–	–	–	–	–	–
COc1cc(Nc2nc(-c3nccn3C)nn3cc(-c4ccn(C)n4)c(C)c23)n[nH]1 [Compound 252, N-(5-Methoxy-1H-pyrazol-3-yl)-5-methyl-2-(1-methyl-1H-imidazol-2-yl)-6-(1-methyl-1H-pyrazol-3-yl)pyrrolo[2,1-f][1,2,4]triazin-4-amine]	< 10	1 to 10	1 to 10	< 1	10 to 50	> 50	–	–	–	–
COc1ccnc(Nc2nc(-c3nccn3C)nn3cc(-c4ccn(C(C)C)n4)c(C)c23)c1 [Compound 58, 6-(1-Isopropyl-1H-pyrazol-3-yl)-N-(4-methoxypyridin-2-yl)-5-methyl-2-(1-methyl-1H-imidazol-2-yl)pyrrolo[2,1-f][1,2,4]triazin-4-amine]	–	10 to 50	10 to 50	< 1	1 to 10	1 to 10	< 150	< 150	< 150	< 150
